Reference: PubChem BioAssay (NCI)
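Method: 48-hour compound exposure of cells in 96-well plates, five concentrations, linear interpolation of endpoints. Here, GI50 denotes the concentration required for 50% inhibition of growth. TGI denotes the concentration required for complete inhibition of growth.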

What was measured:
Assay in all cases: NCI-60 cell line screen, 48 h
786-0 renal = tested on: 786-0 renal
A498 renal = tested on: A498 renal
A549 NSCLC = tested on: A549 NSCLC
ACHN renal = tested on: ACHN renal
BT-549 breast = tested on: BT-549 breast
CAKI-1 renal = tested on: CAKI-1 renal
CCRF-CEM leukemia = tested on: CCRF-CEM leukemia
COLO 205 colon = tested on: COLO 205 colon
DU-145 prostate = tested on: DU-145 prostate
EKVX NSCLC = tested on: EKVX NSCLC
HCC-2998 colon = tested on: HCC-2998 colon
HCT-116 colon = tested on: HCT-116 colon
HCT-15 colon = tested on: HCT-15 colon
HL-60(TB) leukemia = tested on: HL-60(TB) leukemia
HOP-62 NSCLC = tested on: HOP-62 NSCLC
HOP-92 NSCLC = tested on: HOP-92 NSCLC
HS 578T breast = tested on: HS 578T breast
HT29 colon = tested on: HT29 colon
IGROV1 ovarian = tested on: IGROV1 ovarian
K-562 leukemia = tested on: K-562 leukemia
KM12 colon = tested on: KM12 colon
LOX IMVI melanoma = tested on: LOX IMVI melanoma
M14 melanoma = tested on: M14 melanoma
MALME-3M melanoma = tested on: MALME-3M melanoma
MCF7 breast = tested on: MCF7 breast
MDA-MB-231 breast = tested on: MDA-MB-231 breast
MDA-MB-435 = tested on: MDA-MB-435
MOLT-4 leukemia = tested on: MOLT-4 leukemia
NCI-H23 lung = tested on: NCI-H23 lung
NCI-H460 lung = tested on: NCI-H460 lung
NCI-H522 lung = tested on: NCI-H522 lung
NCI/ADR-RES ovarian = tested on: NCI/ADR-RES ovarian
OVCAR-3 ovarian = tested on: OVCAR-3 ovarian
OVCAR-4 ovarian = tested on: OVCAR-4 ovarian
OVCAR-5 ovarian = tested on: OVCAR-5 ovarian
OVCAR-8 ovarian = tested on: OVCAR-8 ovarian
PC-3 prostate = tested on: PC-3 prostate
RPMI-8226 leukemia = tested on: RPMI-8226 leukemia
RXF 393 renal = tested on: RXF 393 renal
SF-268 CNS = tested on: SF-268 CNS
SF-295 CNS = tested on: SF-295 CNS
SF-539 CNS = tested on: SF-539 CNS
SK-MEL-2 melanoma = tested on: SK-MEL-2 melanoma
SK-MEL-28 melanoma = tested on: SK-MEL-28 melanoma
SK-MEL-5 melanoma = tested on: SK-MEL-5 melanoma
SK-OV-3 ovarian = tested on: SK-OV-3 ovarian
SN12C renal = tested on: SN12C renal
SNB-19 CNS = tested on: SNB-19 CNS
SNB-75 CNS = tested on: SNB-75 CNS
SR leukemia = tested on: SR leukemia
SW-620 colon = tested on: SW-620 colon
T-47D breast = tested on: T-47D breast
TK-10 renal = tested on: TK-10 renal
U251 CNS = tested on: U251 CNS
UACC-257 melanoma = tested on: UACC-257 melanoma
UACC-62 melanoma = tested on: UACC-62 melanoma
UO-31 renal = tested on: UO-31 renal
NCI-H226 lung = tested on: NCI-H226 lung

Compound: CC[C@@H](C(=O)[C@@H](C)[C@@H](O)[C@H](C)[C@@H]1O[C@@H]([C@@H](CC)C(=O)O)CC[C@@H]1C)[C@H]1OC2(C=C[C@@H](O)[C@]3(CC[C@@](C)([C@H]4CC[C@](O)(CC)[C@H](C)O4)O3)O2)[C@H](C)C[C@@H]1C (some centres undefined)
- GI50 (786-0 renal): 589 nM
- TGI (786-0 renal): 12400 nM
- GI50 (A498 renal): 27.6 nM
- TGI (A498 renal): 458 nM
- GI50 (A549 NSCLC): 233 nM
- TGI (A549 NSCLC): 9770 nM
- GI50 (ACHN renal): 1680 nM
- TGI (ACHN renal): > 50000 nM
- GI50 (BT-549 breast): 233 nM
- TGI (BT-549 breast): 2970 nM
- GI50 (CAKI-1 renal): 1200 nM
- TGI (CAKI-1 renal): > 50000 nM
- GI50 (CCRF-CEM leukemia): 285 nM
- TGI (CCRF-CEM leukemia): 10700 nM
- GI50 (COLO 205 colon): 124 nM
- TGI (COLO 205 colon): 5470 nM
- GI50 (DU-145 prostate): 1580 nM
- TGI (DU-145 prostate): > 50000 nM
- GI50 (EKVX NSCLC): 220 nM
- TGI (EKVX NSCLC): > 32000 nM
- GI50 (HCC-2998 colon): 105 nM
- TGI (HCC-2998 colon): 10500 nM
- GI50 (HCT-116 colon): 359 nM
- TGI (HCT-116 colon): 14400 nM
- GI50 (HCT-15 colon): 1420 nM
- TGI (HCT-15 colon): > 50000 nM
- GI50 (HL-60(TB) leukemia): 89.4 nM
- TGI (HL-60(TB) leukemia): 316 nM
- GI50 (HOP-62 NSCLC): 447 nM
- TGI (HOP-62 NSCLC): 20700 nM
- GI50 (HOP-92 NSCLC): 82.9 nM
- TGI (HOP-92 NSCLC): 5450 nM
- GI50 (HS 578T breast): 311 nM
- TGI (HS 578T breast): > 50000 nM
- GI50 (HT29 colon): 231 nM
- TGI (HT29 colon): 19700 nM
- GI50 (IGROV1 ovarian): 1840 nM
- TGI (IGROV1 ovarian): > 50000 nM
- GI50 (K-562 leukemia): 213 nM
- TGI (K-562 leukemia): 3390 nM
- GI50 (KM12 colon): 766 nM
- TGI (KM12 colon): 8430 nM
- GI50 (LOX IMVI melanoma): 505 nM
- TGI (LOX IMVI melanoma): > 19000 nM
- GI50 (M14 melanoma): 790 nM
- TGI (M14 melanoma): 1880 nM
- GI50 (MALME-3M melanoma): 224 nM
- TGI (MALME-3M melanoma): 860 nM
- GI50 (MCF7 breast): 154 nM
- TGI (MCF7 breast): > 39200 nM
- GI50 (MDA-MB-231 breast): 239 nM
- TGI (MDA-MB-231 breast): 17100 nM
- GI50 (MDA-MB-435): 568 nM
- TGI (MDA-MB-435): 1510 nM
- GI50 (MOLT-4 leukemia): 726 nM
- TGI (MOLT-4 leukemia): 2500 nM
- GI50 (NCI-H23 lung): 207 nM
- TGI (NCI-H23 lung): 15400 nM
- GI50 (NCI-H460 lung): 324 nM
- TGI (NCI-H460 lung): 7790 nM
- GI50 (NCI-H522 lung): 77.4 nM
- TGI (NCI-H522 lung): 605 nM
- GI50 (NCI/ADR-RES ovarian): 434 nM
- TGI (NCI/ADR-RES ovarian): > 50000 nM
- GI50 (OVCAR-3 ovarian): 101 nM
- TGI (OVCAR-3 ovarian): 15100 nM
- GI50 (OVCAR-4 ovarian): 3010 nM
- TGI (OVCAR-4 ovarian): 49300 nM
- GI50 (OVCAR-5 ovarian): 7870 nM
- TGI (OVCAR-5 ovarian): > 50000 nM
- GI50 (OVCAR-8 ovarian): 823 nM
- TGI (OVCAR-8 ovarian): > 48300 nM
- GI50 (PC-3 prostate): 40.8 nM
- TGI (PC-3 prostate): > 50000 nM
- GI50 (RPMI-8226 leukemia): 117 nM
- TGI (RPMI-8226 leukemia): 4480 nM
- GI50 (RXF 393 renal): 48.5 nM
- TGI (RXF 393 renal): 1850 nM
- GI50 (SF-268 CNS): 1700 nM
- TGI (SF-268 CNS): 26300 nM
- GI50 (SF-295 CNS): 263 nM
- TGI (SF-295 CNS): 19800 nM
- GI50 (SF-539 CNS): 434 nM
- TGI (SF-539 CNS): 8850 nM
- GI50 (SK-MEL-2 melanoma): 622 nM
- TGI (SK-MEL-2 melanoma): 2000 nM
- GI50 (SK-MEL-28 melanoma): 630 nM
- TGI (SK-MEL-28 melanoma): 1310 nM
- GI50 (SK-MEL-5 melanoma): 160 nM
- TGI (SK-MEL-5 melanoma): 534 nM
- GI50 (SK-OV-3 ovarian): 1760 nM
- TGI (SK-OV-3 ovarian): 22600 nM
- GI50 (SN12C renal): 140 nM
- TGI (SN12C renal): > 50000 nM
- GI50 (SNB-19 CNS): 577 nM
- TGI (SNB-19 CNS): > 14200 nM
- GI50 (SNB-75 CNS): 1200 nM
- TGI (SNB-75 CNS): > 24200 nM
- GI50 (SR leukemia): 81.5 nM
- TGI (SR leukemia): 1780 nM
- GI50 (SW-620 colon): 733 nM
- TGI (SW-620 colon): 9140 nM
- GI50 (T-47D breast): 174 nM
- TGI (T-47D breast): 10400 nM
- GI50 (TK-10 renal): 1250 nM
- TGI (TK-10 renal): 20100 nM
- GI50 (U251 CNS): 135 nM
- TGI (U251 CNS): 5560 nM
- GI50 (UACC-257 melanoma): 241 nM
- TGI (UACC-257 melanoma): 5490 nM
- GI50 (UACC-62 melanoma): 701 nM
- TGI (UACC-62 melanoma): 1550 nM
- GI50 (UO-31 renal): 1270 nM
- TGI (UO-31 renal): > 41400 nM

Compound: CCOC(=O)c1cc(C2CCN(Cc3ccccc3)C2=O)c(C(=O)C(=[N+]=[N-])C(C)=O)[nH]1 (centres undefined)
- TGI (786-0 renal): > 100000 nM
- TGI (A498 renal): > 100000 nM
- TGI (A549 NSCLC): > 100000 nM
- TGI (BT-549 breast): > 100000 nM
- TGI (CAKI-1 renal): > 100000 nM
- TGI (CCRF-CEM leukemia): > 100000 nM
- TGI (COLO 205 colon): > 100000 nM
- TGI (DU-145 prostate): > 100000 nM
- TGI (EKVX NSCLC): > 100000 nM
- TGI (HCC-2998 colon): > 100000 nM
- TGI (HCT-116 colon): > 100000 nM
- TGI (HCT-15 colon): > 100000 nM
- TGI (HL-60(TB) leukemia): > 100000 nM
- TGI (HOP-62 NSCLC): > 100000 nM
- TGI (HOP-92 NSCLC): > 100000 nM
- TGI (HS 578T breast): > 100000 nM
- TGI (HT29 colon): > 100000 nM
- TGI (IGROV1 ovarian): > 100000 nM
- TGI (K-562 leukemia): > 100000 nM
- TGI (KM12 colon): > 100000 nM
- TGI (LOX IMVI melanoma): > 100000 nM
- TGI (M14 melanoma): > 100000 nM
- TGI (MALME-3M melanoma): > 100000 nM
- TGI (MCF7 breast): > 100000 nM
- TGI (MDA-MB-231 breast): > 100000 nM
- TGI (MDA-MB-435): > 100000 nM
- TGI (MOLT-4 leukemia): > 100000 nM
- TGI (NCI-H226 lung): > 100000 nM
- TGI (NCI-H23 lung): > 100000 nM
- TGI (NCI-H460 lung): > 100000 nM
- TGI (NCI/ADR-RES ovarian): > 100000 nM
- TGI (OVCAR-3 ovarian): > 100000 nM
- TGI (OVCAR-4 ovarian): > 100000 nM
- TGI (OVCAR-5 ovarian): > 100000 nM
- TGI (OVCAR-8 ovarian): > 100000 nM
- TGI (PC-3 prostate): > 100000 nM
- TGI (RPMI-8226 leukemia): > 100000 nM
- TGI (RXF 393 renal): > 100000 nM
- TGI (SF-268 CNS): > 100000 nM
- TGI (SF-295 CNS): > 100000 nM
- TGI (SF-539 CNS): > 100000 nM
- TGI (SK-MEL-2 melanoma): > 100000 nM
- TGI (SK-MEL-28 melanoma): > 100000 nM
- TGI (SK-MEL-5 melanoma): > 100000 nM
- TGI (SK-OV-3 ovarian): > 100000 nM
- TGI (SN12C renal): > 100000 nM
- TGI (SNB-19 CNS): > 100000 nM
- TGI (SNB-75 CNS): > 100000 nM
- TGI (SR leukemia): > 100000 nM
- TGI (SW-620 colon): > 100000 nM
- TGI (T-47D breast): > 100000 nM
- TGI (U251 CNS): > 100000 nM
- TGI (UACC-257 melanoma): > 100000 nM
- TGI (UACC-62 melanoma): > 100000 nM
- TGI (UO-31 renal): > 100000 nM
